Results reported in patent US20240002437A1, “COMPOSITIONS AND METHODS OF TREATING INFLAMMATORY LUNG DISEASES” (priority 2020, published 2024).

Key:
[1] = test system: eNOS phosphorylation at T495; assay: Western blot of pT495-eNOS in PAEC; type: cell-based, ovine
Protocol: (§1) Primary cultures of ovine pulmonary arterial endothelial cells (PAEC) were isolated as described previously (L. K. Kelly, Am J Physiol Lung Cell Mol Physiol, 286(5), L984-91 (2004)). Briefly, cells were maintained in Dulbecco's modified Eagle medium (DMEM) supplemented with 10% fetal calf serum (Hyclone, Logan, UT), antibiotics/antimycotic (500 IU Penicillin, 500 μg/ml Streptomycin, 1.25 μg/ml Amphotericin B; MediaTech, Herndon, VA) at 37° C. in a humidified atmosphere with 5% CO2 and 95% air. Cells were used for experiments between passages 9-14, seeded at ˜50% confluence, and utilized when fully confluent.
Protein extracts were prepared using lysis buffer (50 mM Tris-HCl, pH 7.6, 0.5% Triton X-100, 20% glycerol) containing HALT™ protease inhibitor cocktail (Pierce Laboratories, Rockford, IL). The extracts were then subjected to centrifugation (15,000 g for 15 min at 4° C.). Supernatant fractions were assayed for protein concentration using the Bradford reagent (Bio-Rad, Richmond, CA) then used for Western blot analyses. Protein extracts (25-50 μg) were separated on Long-Life 4-20% Tris-SDS-Hepes gels and electrophoretically transferred to IMMUNO-BLOT™ PVDF membrane (Bio-Rad Laboratories, Hercules, CA) Immunoblotting was then carried out using the appropriate antibodies in Tris-base buffered saline with 0.1% Tween 20 and 5% nonfat milk. After washing, the membranes were probed with horseradish peroxidase-conjugated goat antiserum to rabbit or mouse. Reactive bands were visualized using chemiluminescence (Super Signal West Femto; Pierce, Rockford, IL) on a LI-COR Odyssey image station (Lincoln, NE). Bands were quantified using LI-COR Image Station software. Loading was normalized by reprobing the membranes with an antibody specific to β-actin.

[2] = test system: mitochondrial redistribution of eNOS; assay: Immunofluorescent microscopy of eNOS mitochondrial redistribution in PAEC; type: cell-based, ovine
Protocol: as §1
PAEC were grown on cover glass for three days after reaching 100% confluence, and fixed with 4% paraformaldehyde (Thermo Fisher Scientific) for 30 min, permeabilized with 100% cold methanol at −20° C. for 5 min Cell then blocked with 1% BSA for 1 hour, and later incubated with first antibody overnight at 4° C. then secondary antibody at room temperature for 1 hour. Finally, cells were mounted on microscope slides using ProLong Glass Antifade Mountant, (Invitrogen, Carlsbad, CA, Cat #P36980). […] The images were analyzed with ImagePro Plus 7.0 (W. Casavan, Microscopy Today, 11(6), 48-50 (2003)) or ImageJ software to evaluate the colocalization of fluorescent.

[3] = test system: PAEC monolayers; assay: Trans endothelial resistance (TER) of PAEC monolayers; type: cell-based, ovine
Protocol: as §1
Transendothelial Electrical Resistance (TER) was determined to characterize the integrity of PAEC monolayers using an electrical cell-substrate impedance sensing (ECIS) instrument ECIS Z-Theta (Applied BioPhysics, Troy, NY) as previously described (J. N. Gonzales, Vascul Pharmacol, 62(2), 63-71 (2014); S. Aggarwal, American Journal of Respiratory Cell and Molecular Biology, 50(3), 614-25 (2014)). The cells were plated in 8-well ECIS arrays (Applied BioPhysics) in complete cell culture medium (DMEM supplemented with 10% FBS) and grown to 100% confluency for 2 days. […] After a baseline measurement, the EC were treated with 4αPDD, PMA, the eNOS pT495 decoy peptide, or vehicle at the indicated concentrations, and changes in TER were recorded in real time.

[4] = test system: NOS-derived superoxide; assay: NOS-derived superoxide by EPR (eNOS uncoupling) in PAEC; type: cell-based, ovine
Protocol: as §1
Superoxide levels were estimated by electron paramagnetic resonance (EPR) assay using the spin-trap compound 1-hydroxy-3-methoxycarbonyl-2,2,5,5-tetramethylpyrrolidine HCl (CMH, Axxora) as described previously. Superoxide in PAEC was trapped by incubating PAEC with 20 μl of CMH stock solution (20 mg/ml) for 1 h, followed by trypsinization and centrifugation at 500 g. The cell pellet was suspended in 35 μl DPBS and loaded into a capillary tube which was then analyzed with a MiniScope MS200 EPR machine (Magnettech, Berlin, Germany). Pre-incubating cells or tissue with 100 μM ethylisothiourea (ETU, Sigma-Aldrich) for 30 min followed by incubation with CMH measured NOS-derived superoxide. EPR spectra were analyzed using ANALYSIS v.2.02 software (Magnettech). Differences between levels of samples incubated in the presence and absence of ETU were used to determine NOS-dependent superoxide generation.

[5] = test system: mouse model of VILI; assay: Mouse model of VILI (high tidal volume ventilation); type: in vivo; conditions: 10 mg/kg intraperitoneally 3 h before ventilation; tidal volume 35 mL/kg, 4 h
Protocol: Male C57BL/6 mice aged between 6 and 8 weeks were purchased from Jackson Laboratories (ME, USA). Mice were maintained at a room temperature of 22±1° C. in air with 40-70% humidity at least one week before experiments. Animals were randomly distributed into 4 groups (n=5 in each group): non-ventilated control mice with normal saline; non-ventilated control mice treated with the eNOS decoy peptide (d-peptide); high tidal volume with normal saline; high tidal volume with eNOS decoy peptide. Three hours before ventilation, saline or the eNOS decoy peptide (10 mg/kg body weight) were injected intraperitoneally. Before mechanical ventilation was initiated, mice were anesthetized using an intraperitoneal injection with a cocktail containing ketamine (100 mg/kg) and xylazine (5 mg/kg). The mice were then placed in a supine position on a heating pad to maintain body temperature. For the ventilation procedure, mice were orotracheally intubated with a 20 g intravenous indwelling catheter and attached to a small animal ventilator (SAR-1000, CWE Inc., USA). The ventilation parameters were set as follows: inspiration/expiration ratio, 33%; respiratory rate, 75 breaths/min; and tidal volume, 35 mL/kg (high tidal volume group). During mechanical ventilation, mice were maintained in deep anesthesia by injecting with ketamine (100 mg/kg) every 45 minutes for the duration of the 4 h study. Mice in the non-ventilated control group were allowed to spontaneously breathe. […] The pellets were then resuspended in 500 μl of PBS and the cell numbers present were determined using an automated cell counter. The BAL fluid was centrifuged again at 15,000× g at 4° C. for 15 min and the supernatant collected and stored at −80° C. until the protein concentration was measured. […]
Protein extracts were prepared using lysis buffer (50 mM Tris-HCl, pH 7.6, 0.5% Triton X-100, 20% glycerol) containing HALT™ protease inhibitor cocktail (Pierce Laboratories, Rockford, IL). […] Bands were quantified using LI-COR Image Station software. […]

Compound	eNOS phosphorylation at T495 ([1]; 4αPDD)	mitochondrial redistribution of eNOS ([2]; 4αPDD)	TER (barrier integrity) ([3]; 4αPDD 0-15 μM)	NOS derived superoxide generation (eNOS uncoupling) ([4]; 4αPDD)	PMA-mediated increase in pT495-eNOS ([1]; d-peptide 1 μg/ml, PMA 100 nm, 2 h)	PMA-induced mitochondrial redistribution of eNOS ([2]; d-peptide and PMA)	BALF cell number [5]	BALF protein levels [5]	increase in pT495-eNOS induced by mechanical ventilation of the mouse lung [5]	barrier disruption induced by 4αPDD (normalized TER) ([3]; d-peptide plus 4αPDD)	eNOS uncoupling (NOS-derived superoxide levels) ([4]; d-peptide and PMA)
CCCCCCCCCC(=O)O[C@@H]1[C@@H](C)[C@@]2(O)[C@@H](C=C(CO)C[C@@]3(O)C(=O)C(C)=C[C@@H]23)[C@@H]2C(C)(C)[C@]12OC(=O)CCCCCCCCC [4αPDD, 4α-Phorbol-12,13 didecanoate]	increase in eNOS phosphorylation at T495	induces the mitochondrial redistribution of eNOS	dose-dependent decrease in TER	increases in NOS derived superoxide generation	–	–	–	–	–	–	–
HRKKRRQRRITRKKTFKEVA [d-peptide]	–	–	–	–	attenuated the PMA-mediated increase in pT495-eNOS	attenuated	decreases in the cell number	decreases	attenuated the increase in pT495-eNOS induced by mechanical ventilation	reduced	reduced eNOS uncoupling
